The text below walks through data of patent publication USRE38257E1, “Piperdine derivatives and hypotensives containing the same” (Ajinomoto Co., Inc., priority 1988, dated 2003).

The subject of the test is male spontaneously hypertensive rats. The experiment in a line: Decrease in systolic blood pressure in spontaneously hypertensive rats after intravenous bolus injection, indirect (tail-cuff) method. Format: in vivo, rat. The settings on record: for Decrease in systolic blood pressure (mmHg) time after administration (hour) 0.5: 0.5 hour after administration; for Decrease in systolic blood pressure (mmHg) time after administration (hour) 4: 4 hours after administration. Here is the method:
As test animals, four male spontaneously hypertensive rats (weight 400 to 440 g) that were sufficiently adapted for feeding and in which hypertension was confirmed were used.
Physiological saline aqueous solution containing 2.5% Nicolle and 2.5% ethanol of sample was intravenously administered by bolus injection at a dose of 1 ml per 1 kg of body weight. Systolic blood pressure after administration was measured by the indirect (tail-cuff) method.

As to `Cl.O=[N+]([O-])c1ccc(C=CCN2CCC(=C3c4ccccc4C=Cc4ccccc43)CC2)cc1` [Example 325, (5H-Dibenzo[a,d]cyclohepten-5-ylidene)-1-(4-nitrocinnamyl)piperidine hydrochloride], under “dose 10 mg/kg i.v. bolus”, the “Decrease in systolic blood pressure (mmHg) time after administration (hour) 0.5” value (“Decrease in systolic blood pressure … (hour) 0.5” below) was −115 mmHg and the “Decrease in systolic blood pressure (mmHg) time after administration (hour) 4” value (from here on “Decrease in systolic blood pressure … (hour) 4”) is given as −100 mmHg.
The corresponding values for `CC(CC(=O)N1CCSCC1)N1CCC(=C2c3ccccc3C=Cc3ccccc32)CC1.Cl` (centres unmarked) [Example 246] are −34 mmHg and −4 mmHg.
For `CCOC(=O)C1(CCCCN2CCC(=C3c4ccccc4C=Cc4ccccc43)CC2)CCCCC1.Cl` [Example 269, 1-(4-(4-(5H-Dibenzo[a,d]cyclohepten-5-ylidene)-1-piperidinyl)-1-butyl)-1-ethoxycarbonxylcyclohexane hydrochloride], in that order: 143 mmHg and −71 mmHg.
For `Cl.Cl.Nc1ccccc1CN1CCC(=C2c3ccccc3C=Cc3ccccc32)CC1` [Example 138, 1-(2-Aminobenzy)-4-(5H-Dibenzo[a,d]cyclohepten-5-ylidene)piperidine dihydrochloride], in that order: −129 mmHg and −33 mmHg.
As to `Cc1cccc(CN2CCC(=C3c4ccccc4C=Cc4ccccc43)CC2)c1.Cl` [Example 132, 4-(5H-Dibenzo[a,d]cyclohepten-5-ylidene)-1-(3-methylbenyl)piperidine hydrochloride], where the note is “dose 10 mg/kg i.v. bolus”, the “Decrease in systolic blood pressure … (hour) 0.5” value was −106 mmHg and the “Decrease in systolic blood pressure … (hour) 4” value is −5 mmHg.
Regarding `C1=Cc2ccccc2C(=C2CCN(CCCCCCC3CCCCC3)CC2)c2ccccc21.Cl` [Example 154, 1-Cyclohexyl-6-(4-(5H-dibenzo[a,d]cyclohepten-5-ylidene)-1-piperidinyl)hexane hydrochloride], for the setting “dose 10 mg/kg i.v. bolus”, the “Decrease in systolic blood pressure … (hour) 0.5” value is −131 mmHg and the “Decrease in systolic blood pressure … (hour) 4” value is given as −105 mmHg.
For `C1=Cc2ccccc2C(=C2CCN(Cc3ccccc3)CC2)c2ccccc21.Cl` [Example 12, 1-Benzyl-4-(5H-dibenzo[a,d]cyclohepten-5-ylidene)piperidine hydrochloride], in that order: −27 mmHg and 1 mmHg.
For `CC(=O)OCC1(CCCCN2CCC(=C3c4ccccc4C=Cc4ccccc43)CC2)CCCCC1.Cl` [Example 273, 1-Acetoxymethyl-1-(4-(4-(5H-dibenzo[a,d]cyclohepten-5-ylidene)-1-piperidinyl)-1-butyl)cyclohexane hydrochloride], in that order: −37 mmHg and 5 mmHg.
On to `Cl.N#CC(CCCN1CCC(=C2c3ccccc3C=Cc3ccccc32)CC1)c1cccc(C(F)(F)F)c1` (centres unmarked) [Example 59, 5-(4-(5H-Dibenzo[a,d]cyclohepten-5-ylidene)-1-piperidinyl)-2-(3-trifluoromethylphenyl)valeronitrile hydrochloride], for which, under “dose 10 mg/kg i.v. bolus”, the “Decrease in systolic blood pressure … (hour) 0.5” value is given as −87 mmHg and the “Decrease in systolic blood pressure … (hour) 4” value was −21 mmHg.
Regarding `COc1cccc(C=CCN2CCC(=C3c4ccccc4C=Cc4ccccc43)CC2)c1[N+](=O)[O-].Cl` [Example 377], under “dose 1 mg/kg i.v. bolus”, the “Decrease in systolic blood pressure … (hour) 0.5” value is −151 mmHg and the “Decrease in systolic blood pressure … (hour) 4” value is given as −73 mmHg.
As for “4-(4-(5H-Dibenzo[a,d]cyclohepten-5-ylidene)-1-piperidinyl)-4′-trimethoxybutyrophenone hydrochloride [Example 172]”, for the setting “dose 10 mg/kg i.v. bolus”, the “Decrease in systolic blood pressure … (hour) 0.5” value is −115 mmHg and the “Decrease in systolic blood pressure … (hour) 4” value is on record as −25 mmHg.
With `COc1cc(C=CCN2CCC(=C3c4ccccc4C=Cc4ccccc43)CC2)cc(OC)c1.Cl` [Example 345, 4-(5H-Dibenzo[a,d]cyclohepten-5-ylidene)-1-(3,5-dimethoxycinnamyl)piperidine hydrochloride], under “dose 3 mg/kg i.v. bolus”, the “Decrease in systolic blood pressure … (hour) 0.5” value is −120 mmHg and the “Decrease in systolic blood pressure … (hour) 4” value is given as −95 mmHg.
For `C1=Cc2ccccc2C(=C2CCN(CCCCC3CCCCC3)CC2)c2ccccc21.Cl` [Example 228], in that order: −112 mmHg and −14 mmHg.
In the case of `CCCCC(C#N)(CCCN1CCC(=C2c3ccccc3C=Cc3ccccc32)CC1)c1cccc(C(F)(F)F)c1.Cl` (centres unmarked) [Example 150, 2-Butyl-5-(4-(5H-Dibenzo[a,d]cyclohepten-5-ylidene)-1-piperidinyl)-2-(3-trifluoromethylphenyl)valeronitrile hydrochloride], for the setting “dose 10 mg/kg i.v. bolus”, the “Decrease in systolic blood pressure … (hour) 0.5” value is −110 mmHg and the “Decrease in systolic blood pressure … (hour) 4” value was −47 mmHg.
As to `COc1cc(C(=O)N2CCC(=C3c4ccccc4C=Cc4ccccc43)CC2)cc(OC)c1OC` [Example 189, 4-(5H-Dibenzo[a,d]cyclohepten-5-ylidene)-1-(3,4,5-trimethoxybenzoyl)piperidine], under “dose 10 mg/kg i.v. bolus”, the “Decrease in systolic blood pressure … (hour) 0.5” value is −72 mmHg and the “Decrease in systolic blood pressure … (hour) 4” value is −15 mmHg.
With `Cl.Cl.Nc1ccc(C=CCN2CCC(=C3c4ccccc4CCc4ccccc43)CC2)cc1` [Example 351, 1-(4-Aminocinnamyl)-4-(10,11-dihydro-5H-Dibenzo[a,d]cyclohepten-5-ylidene)-1-piperidine dihydrochloride], under “dose 3 mg/kg i.v. bolus”, the “Decrease in systolic blood pressure … (hour) 0.5” value is on record as −70 mmHg and the “Decrease in systolic blood pressure … (hour) 4” value is listed as −21 mmHg.
Take `Cl.O=[N+]([O-])c1ccc(C=CCN2CCC(=C3c4ccccc4CCc4ccccc43)CC2)cc1` [Example 350, 4-(10,11-Dihydro-5H-dibenzo[a,d]cyclohepten-5-ylidene)-1-(4-nitrocinnamyl)piperidine hydrochloride]: for the setting “dose 10 mg/kg i.v. bolus”, the “Decrease in systolic blood pressure … (hour) 0.5” value is given as −136 mmHg and the “Decrease in systolic blood pressure … (hour) 4” value was −85 mmHg.
The corresponding values for `Cl.O=C(CCN1CCC(=C2c3ccccc3C=Cc3ccccc32)CC1)NC1CCCCC1` [Example 226, N-(3,(4-(5H-Dibenzo[a,d]cyclohepten-5-ylidene)-1-piperidinyl)propanoyl)cyclohexylamine hydrochloride] are −131 mmHg and −16 mmHg.
Take `CC(=O)NC1CCC(CCCCN2CCC(=C3c4ccccc4C=Cc4ccccc43)CC2)CC1.Cl` (centres unmarked) [Example 260, 1-(4-acetylamino-1-cyclohexyl)-4-(4-(5H-dibenzo[a,d]cyclohepten-5-ylidene)-1-piperidinyl)butane hydrochloride]: where the note is “dose 10 mg/kg i.v. bolus”, the “Decrease in systolic blood pressure … (hour) 0.5” value is given as −51 mmHg and the “Decrease in systolic blood pressure … (hour) 4” value was −10 mmHg.
For `C1=Cc2ccccc2C(=C2CCN(CCCC3CCCCN3)CC2)c2ccccc21.Cl.Cl` (centres unmarked) [Example 307, 3-(4-(5H-Dibenzo[a,d]cyclohepten-5-ylidene)-1-piperidinyl)-1-(2-piperidinyl)propane dihydrochloride], in that order: −62 mmHg and −20 mmHg.
In the case of `Cl.O=C(CCCN1CCC(=C2c3ccccc3C=Cc3ccccc32)CC1)c1ccco1` [Example 233, 4-(4-(5H-Dibenzo[a,d]cyclohepten-5-ylidene)-1-piperidinyl)-1-(2-furyl)-1-butanone hydrochloride], where the note is “dose 10 mg/kg i.v. bolus”, the “Decrease in systolic blood pressure … (hour) 0.5” value is given as −35 mmHg and the “Decrease in systolic blood pressure … (hour) 4” value is −1 mmHg.
The corresponding values for `COC1CCC(CCCN2CCC(=C3c4ccccc4C=Cc4ccccc43)CC2)CC1.Cl` (centres unmarked) [Example 324, 1-(1-(4-Methoxy)cyclohecyl)-3-(4-(5H-Dibenzo[a,d]cyclohepten-5-ylidene)-1-piperidinyl)propane hydrochloride] are −137 mmHg and −46 mmHg.
The corresponding values for `C1=Cc2ccccc2C(=C2CCN(CCC3CCCCC3)CC2)c2ccccc21.Cl` [Example 8, 1-Cyclohexyl-2-(4-(5H-dibenzo[a,d]cyclohepten-5-ylidene)-1-piperidinyl)ethane hydrochloride] are −95 mmHg and −21 mmHg.
Consider “4-(2-(4-(5H-Dibenzo[a,d]cyclohepten-5-ylidene)-1-piperidinyl)-1-ehtyl)-2,4,5,6-tetramethyl-1,4-dihydropyridino-3,5-dicarboxylate hydrochloride [Example 311]”, for which, under “dose 10 mg/kg i.v. bolus”, the “Decrease in systolic blood pressure … (hour) 0.5” value is reported as −90 mmHg and the “Decrease in systolic blood pressure … (hour) 4” value is −18 mmHg.
The corresponding values for `C1=Cc2ccccc2C(=C2CCN(CCCCCCc3ccccc3)CC2)c2ccccc21.Cl` [Example 17, 6-(4-(5H-Dibenzo[a,d]cyclohepten-5-ylidene)-1-piperidinyl)-1-phenylhexane hydrochloride] are −84 mmHg and −16 mmHg.
